Laboratory results taken from patent US20110224232A1 (Board of Regents, The University of Texas System, priority 2008, published 2011).
In brackets after ≈: the same amount, converted by molar mass. Entries after “also recorded” stand apart in the source; their conditions may differ. Where two headings read alike, the source gives them in different places.

How the values were obtained:
Aspergillus fumigatus [1] = details: cited from earlier work
[2] = system: Aspergillus fumigatus clinical isolate 293 (AF 293); experiment: Survival of A. fumigatus-infected immunosuppressed mice (Kaplan-Meier); assay type: in vivo; details: for Percent Survival / Median Survival: A. fumigatus-infected female ICR mice, VOR inhalation BID 30-40 mg/kg, AmB intraperitoneal QD 1 mg/kg; for Percent Survival: to Day +12
Description: Conidia were harvested from Aspergillus fumigatus clinical isolate 293 (AF 293) cultures grown on potato dextrose agar (Hardy Diagnostics, Santa Maria, Calif.) by washing and scraping agar surfaces with 0.1% Tween 80 in sterile physiological saline and filtering through sterile glass wool. Conidia were re-suspended to achieve a final inoculum of ˜1×10^9 conidia/mL, as confirmed by hemocytometer counts and serial plating.
Mice were rendered immunosuppressed by intraperitoneal cyclophosphamide (250 mg/kg) and subcutaneous cortisone acetate (250 mg/kg) two days prior to inoculation (Day −2). Both cyclophosphamide (200 mg/kg intraperitoneal) and cortisone acetate (250 mg/kg subcutaneously) were re-administered on Day +3 following inoculation. Mice also received prophylactic antibiotic therapy of ceftazidime 50 mg/kg administered sub-cutaneously on Day −2 through Day +7.
To simulate pulmonary pathogenesis, mice were placed inside an acrylic chamber, and A. fumigatus conidia were introduced by aerosolizing the conidial suspension with a small particle nebulizer (Hudson Micro Mist, Hudson RCI, Temecula, Calif.) driven by compressed air. A standard exposure time of 1 hour was used to allow for complete aerosolization of the conidial suspension. Starting inocula were assessed by colony forming unit (CFU) enumeration from mice one hour post-inoculation.
The inhaled control group received 20 minute nebulizations of 100 mg/mL CAPTISOL® solutions BID beginning on Day −2 and continuing through Day +7. The intraperitoneal AmB group received 1 mg/kg Amphotericin B deoxycholate (Apothecon, Princeton, N.J.) by intraperitoneal injection (IP) once daily (QD) on Day +1 and continuing through Day +7 (FIG. 2).
Statistical analyses were conducted as follows. Survival was plotted by Kaplan-Meier analysis, and differences in median survival and percent survival between prophylaxis groups were analyzed by the log-rank test and chi-square test, respectively, using Prism version 4 software (GraphPad, San Diego, Calif.). […] A p-value of ≦0.05 was considered statistically significant for all comparisons.

[3] = Aqueous and phase solubility of voriconazole with SAE-CD; assay type: physicochemical
Aspergillus fumigatus [4] = experiment: Pulmonary fungal burden by colony forming units in infected mice; assay type: in vivo
Method: (§1) Mice were monitored for an additional 5 days following discontinuation of treatment. Animals that appeared moribund prior to the end of the study were euthanized by halothane and death was recorded as occurring the next day. 12 mice were randomly selected from each group and euthanized on Day +8 for fungal burden analysis while any remaining mice were euthanized on Day +12. 2 additional mice were randomly selected from each group and euthanized on Day +8 and Day +12 for histological analysis
Lungs were homogenized in sterile saline (total volume 2 mL) supplemented with gentamicin and chloramphenicol using a tissue homogenizer (Polytron Dispensing and Mixing Technology PT 2100, Kinematica, Cincinnati, Ohio). Serial dilutions were prepared in sterile saline and plated in duplicate onto potato dextrose agar. Following 24 hours of incubation at 37° C., colonies were enumerated and colony forming units (CFU) per gram of lung tissue for each animal were calculated.
(§2) Statistical analyses were conducted as follows. Survival was plotted by Kaplan-Meier analysis, and differences in median survival and percent survival between prophylaxis groups were analyzed by the log-rank test and chi-square test, respectively, using Prism version 4 software (GraphPad, San Diego, Calif.). Differences in fungal burden endpoints (CFU/g and CE) were assessed for significance by analysis of variance with Tukey's post-test for multiple comparisons. A p-value of ≦0.05 was considered statistically significant for all comparisons.

A. fumigatus = experiment: Lung histopathology, pulmonary lesion counts in A. fumigatus-infected mice; assay type: in vivo, Aspergillus fumigatus
Method: Histopathological changes in lung tissue were evaluated and compared for four mice in each of the inhaled voriconazole, inhaled control, and intraperitoneal AmB groups. The inhaled control was aerosolized CAPTISOL® at a concentration of 100 mg/mL over 20 minutes. On day 8 post inoculation, animals were euthanized using halothane and 10% volume/volume formaldehyde was instilled into the lungs via the trachea. Lungs were then harvested and placed into 10% volume/volume formaldehyde. Tissue was fixed in formaldehyde for an adequate period of time followed by processing and embedding into paraffin wax. Coronal sections of the entire lung were obtained at a thickness of 4-6 μm and mounted on slides. Sections were stained with hematoxylin and eosin and viewed by light microscopy with a Zeiss AxioVision Imager at 10× magnification. Two investigators were blinded and independently evaluated each lung section. The extent of lung damage caused by invasive hyphae was recorded and quantified by counting and normalizing the number of gross lesions.
Normalization of the histopathology results was achieved by using the number of lung pieces (sections) on the slide as a denominator. The total number of lesions on the slide were counted and then divided by the number of pieces of tissue on that slide. This was done because the number of pieces of tissue per slide (again, all from the same cut of lung from the same animal) ranged from 4 to 9. For example, the normalized number of lesions would be 0.4 if 2 lesions were observed on a slide with 5 lung pieces. Similarly, the normalized value would be 0.14 if 1 lesion was observed on a slide with 7 lung pieces.

Aspergillus fumigatus [5] = experiment: Pulmonary fungal burden by real-time quantitative PCR (conidial equivalents) in infected mice; assay type: in vivo; details: Day + 8 per table footnote
Method: as §1
Pulmonary fungal burden was also quantified by real-time quantitative polymerase chain reaction (qPCR) using previously described methods. Briefly, DNA was extracted from […] of lung homogenate with the use of a commercially available kit (DNeasy Tissue Kit, Qiagen, Valencia, Calif.) according to the manufacturer's instructions. DNA samples were analyzed in duplicate with the use of the ABI PRISM 7300 sequence-detection system (Applied Biosystems, Foster City, Calif.) with primers and dual-labeled fluorescent hybridization probes specific for the A. fumigatus 1,3-β-glucan synthase (FKS) gene (GenBank accession number U79728). The threshold cycle (Ct) of each sample was interpolated from a six-point standard curve generated by spiking naive mouse lungs with known amounts of conidia (102 to 107). An internal standard was amplified in separate reactions to correct for differences in DNA recovery. The resulting data was expressed as conidial equivalents (CE).
as §2

[6] = Aerodynamic droplet size characterization, AERONEB Pro nebulizer and eight-stage cascade impactor; assay type: physicochemical
Method: The performance of an inhalable formulation of the invention was evaluated using an AERONEB® Pro nebulizer and a cascade impactor. Aerodynamic droplet size distributions were determined using an adapted USP Apparatus 1 nonviable eight-stage cascade impactor (Thermo-Anderson, Smyrna, Ga.) with a spacer.
Aerodynamic droplet size distributions were determined using a USP Apparatus 1 nonviable eight-stage cascade impactor (Thermo-Anderson, Symrna, Ga.) to quantify total emitted dose (TED) from the nebulizer output, mass median aerodynamic diameter (MMAD), geometric standard deviation (GSD), and percentage droplets with an aerodynamic diameter less than 4.7 micrometer (defined as the percentage fine particle fraction or FPF). The aerodynamic droplet size distribution was conducted as adapted from the guidelines described in USP 30 Section 601: Aerosols, Nasal Sprays, Metered-dose Inhalers, and Dry Powder Inhalers.

[7] = single dose of IV or oral voriconazole; cited from earlier work
[8] = normalized lesions, listed as VRC

CC(c1ncncc1F)C(O)(Cn1cncn1)c1ccc(F)cc1F (stereo not drawn) [Voriconazole, 2-(2,4-difluorophenyl)-3-(5-fluoropyrimidin-4-yl)-1-(1H-1,2,4-triazol-1-yl)butan-2-ol]
MIC50 (Aspergillus fumigatus [1]; A. fumigatus clinical test isolates): 0.25 µg/mL (≈ 0.000716 mM) | minimum inhibitory concentrations for 90% of isolates (MIC90) (Aspergillus fumigatus [1]; Aspergillus fumigatus): 0.5-1 microgram/mL | MIC90 (Aspergillus fumigatus [1]; red line in FIG. 10): 0.52 µg/mL (≈ 0.00149 mM) | Percent Survival [2]: 66.7% | Percent Survival ([2]; listed as voriconazole): Approximately 67% | Median Survival [2]: >12 days | Median Survival ([2]; listed as voriconazole): over 12 days | difference in survival versus negative control (inhaled Captisol) and positive control (intraperitoneal Amphotericin B) ([2]; Kaplan-Meier survival curves): statistically significant (p<0.05) difference in survival | solubility ([3]; water with SAE-CD, aqueous with cosolvent or surfactant or cyclodextrin, thermodynamic from solid, Voriconazole (mg/ml) at saturated solubility, SAE-CD 43.26 mg/ml (r4)): 3.34 mg/mL (≈ 9.56 mM) | solubility ([3]; water with SAE-CD, aqueous with cosolvent or surfactant or cyclodextrin, thermodynamic from solid, Voriconazole (mg/ml) at saturated solubility, SAE-CD 43.26 mg/ml as printed (r8)): 35.1 mg/mL (≈ 101 mM) | solubility ([3]; water with SAE-CD, aqueous with cosolvent or surfactant or cyclodextrin, thermodynamic from solid, Voriconazole (mg/ml) at saturated solubility, SAE-CD 108.15 mg/ml): 8.39 mg/mL (≈ 24 mM) | solubility ([3]; water with SAE-CD, aqueous with cosolvent or surfactant or cyclodextrin, thermodynamic from solid, Voriconazole (mg/ml) at saturated solubility, SAE-CD 216.3 mg/ml): 17.3 mg/mL (≈ 49.6 mM) | solubility ([3]; water with SAE-CD, aqueous with cosolvent or surfactant or cyclodextrin, thermodynamic from solid, Voriconazole (mg/ml) at saturated solubility, SAE-CD 324.45 mg/ml): 26.5 mg/mL (≈ 75.8 mM) | solubility ([3]; water, room temperature, absence of water soluble cyclodextrin derivative, read-out: aqueous solubility): 0.68 to 0.69 mg/mL (≈ 1.95 to 1.98 mM) | A - Day 8 Fungal Burden Determined by CFU, Mean (Aspergillus fumigatus [4]; Day +8): 4.26 log10 CFU | A - Day 8 Fungal Burden Determined by CFU, Median (Aspergillus fumigatus [4]; Day +8): 4.21 log10 CFU | A - Day 8 Fungal Burden Determined by CFU, Range (Aspergillus fumigatus [4]; Day +8): (3.62-4.68) log10 CFU | B - Fungal Burden Determined by CFU for All Mice, Mean (Aspergillus fumigatus [4]; all samples, day 8 and day 12): 3.88 log10 CFU | B - Fungal Burden Determined by CFU for All Mice, Median (Aspergillus fumigatus [4]; all samples, day 8 and day 12): 4.14 log10 CFU | B - Fungal Burden Determined by CFU for All Mice, Range (Aspergillus fumigatus [4]; all samples, day 8 and day 12): (2.60-4.68) log10 CFU | reduction in fungal burden between the groups (CFUs per gram of lung mass and CEs by qPCR) (Aspergillus fumigatus [4]; in vivo): no significant reduction in fungal burden | lung histopathology findings (in words) (A. fumigatus; A. fumigatus-infected mice, aerosolized voriconazole, intraperitoneal amphotericin B): fewer signs of invasive disease and markedly improved histological findings; also recorded: fewer signs of invasive disease and markedly improved histological results; also recorded: Invasive hyphae and tissue destruction characteristic of invasive pulmonary aspergillosis were not observed | pulmonary lesions normalized for the number of lung tissue pieces per slide, 25th Percentile (A. fumigatus; normalized lesions): 0.19 | pulmonary lesions normalized for the number of lung tissue pieces per slide, 75th Percentile (A. fumigatus; normalized lesions): 0.51 | pulmonary lesions normalized for the number of lung tissue pieces per slide, Maximum (A. fumigatus; normalized lesions): 0.55 | pulmonary lesions normalized for the number of lung tissue pieces per slide, Mean (A. fumigatus; normalized lesions): 0.4 | pulmonary lesions normalized for the number of lung tissue pieces per slide, Median (A. fumigatus; normalized lesions): 0.37 | pulmonary lesions normalized for the number of lung tissue pieces per slide, Minimum (A. fumigatus; normalized lesions): 0.14 | pulmonary lesions normalized for the number of lung tissue pieces per slide, 25th Percentile (A. fumigatus; [8]): 0.2 | pulmonary lesions normalized for the number of lung tissue pieces per slide, 75th Percentile (A. fumigatus; [8]): 0.5 | pulmonary lesions normalized for the number of lung tissue pieces per slide, Maximum (A. fumigatus; [8]): 0.6 | pulmonary lesions normalized for the number of lung tissue pieces per slide, Median (A. fumigatus; [8]): 0.4 | pulmonary lesions normalized for the number of lung tissue pieces per slide, Minimum (A. fumigatus; [8]): 0.1 | pulmonary lesions in all available histological samples, 25th Percentile (A. fumigatus; number of lesions): 1.3 | pulmonary lesions in all available histological samples, 75th Percentile (A. fumigatus; number of lesions): 4.3 | pulmonary lesions in all available histological samples, Maximum (A. fumigatus; number of lesions): 5.0 | pulmonary lesions in all available histological samples, Mean (A. fumigatus; number of lesions): 2.5 | pulmonary lesions in all available histological samples, Median (A. fumigatus; number of lesions): 2.0 | pulmonary lesions in all available histological samples, Minimum (A. fumigatus; number of lesions): 1.0 | C - Conidial Equivalents Determined by qPCR, Mean (Aspergillus fumigatus [5]): 4.56 log10 conidial equivalents | C - Conidial Equivalents Determined by qPCR, Median (Aspergillus fumigatus [5]): 4.59 log10 conidial equivalents | C - Conidial Equivalents Determined by qPCR, Range (Aspergillus fumigatus [5]): (3.77-5.32) log10 conidial equivalents | D - Conidial Equivalents per Gram of Lung Tissue Determined by Qpcr, Mean (Aspergillus fumigatus [5]; normalized for wet lung weight): 5.19 log10 conidial equivalents per | D - Conidial Equivalents per Gram of Lung Tissue Determined by Qpcr, Median (Aspergillus fumigatus [5]; normalized for wet lung weight): 5.24 log10 conidial equivalents per | D - Conidial Equivalents per Gram of Lung Tissue Determined by Qpcr, Range (Aspergillus fumigatus [5]; normalized for wet lung weight): (4.45-5.98) log10 conidial equivalents per | FPF (fine particle fraction) ([6]; Average Results of Test 1 and 2, 6.25 mg/mL): > 70% | estimated TED, based on measured residual volumes ([6]; all dosing during the survival study): 25.44 mg | typical Tmax in human plasma [7]: 50 to 66 min
